Test results: patent publication US9951052B2, “Inhibitors of the renal outer medullary potassium channel” (Merck Sharp & Dohme Corp., priority 2013, dated 2018)

Target: T1, hROMK (hKir1.1) (Homo sapiens, UniProt P48048)
T1 construct: expressed in transfected cells
T1 sequence (P48048 1-391): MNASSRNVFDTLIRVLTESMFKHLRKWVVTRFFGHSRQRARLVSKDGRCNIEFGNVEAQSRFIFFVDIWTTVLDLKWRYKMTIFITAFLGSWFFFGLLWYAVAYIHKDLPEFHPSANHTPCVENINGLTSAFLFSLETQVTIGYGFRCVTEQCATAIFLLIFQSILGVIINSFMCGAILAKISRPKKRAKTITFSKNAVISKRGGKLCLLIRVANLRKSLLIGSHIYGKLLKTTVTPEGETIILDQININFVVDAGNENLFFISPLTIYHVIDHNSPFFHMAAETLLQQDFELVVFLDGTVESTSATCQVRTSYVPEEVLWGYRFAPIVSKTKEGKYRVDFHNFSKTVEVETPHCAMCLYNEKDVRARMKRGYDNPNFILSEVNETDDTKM
Assay: Thallium Flux Assay (ROMK channel functional thallium flux, FLIPR-Tetra)
Assay type: cell-based
Conditions: HEK293 cells stably expressing hROMK (hKir1.1); 30 min incubation with compound; HCl salt run where final product was an HCl salt
Protocol: The following Thallium Flux Assay was performed on each of the final product compounds in the Examples. When the final product of an Example was an HCl salt, the salt was run in the Assay.
Cell Culture Conditions—HEK293 cells stably expressing hROMK (hKir1.1) were grown at 37° C. in a 10% CO2 humidified incubator in complete growth media: Dulbecco's Modified Eagle Medium supplemented with non-essential amino acids, Penicillin/Streptomycin/Glutamine, G418 and FBS. At >80% confluency, aspirate the media from the flask and rinse with 10 mL Calcium/Magnesium-free PBS. Add 5 mL of 1× trypsin (prepared in Ca/Mg Free PBS) to T-225 flask and return flask to 37° C./CO2 incubator for 2-3 minutes. To dislodge the cell, gently bang the side of the flask with your hand. Triturate the cells completely and then transfer the cells to 25 mL complete media. Centrifuge at 1,500 rpm for 6 min followed by resuspension in complete growth media and determine cell concentration. For typical re-seeding, 4E6 cells/T-225 flask will attain >80% confluency in 4 days. Under ideal growth conditions and appropriate tissue culture practices, this cell line is stable for 40-45 passages.
FluxOR Kit Components (Invitrogen F10017)
• FluxOR™ Reagent (Component A) • FluxOR™ Assay Buffer (Component B)—10× Concentrate • PowerLoad™ Concentrate (Component C)—100× Concentrate • Probenecid (Component D)—Lyophilized sample is kept at −20° C. Water soluble, 100× after solubilization in 1 mL water. Store at 4° C. • FluxOR™ Chloride-free Buffer (Component E)—5× Concentrate • Potassium sulfate (K2SO4) Concentrate (Component F)—125 mM in water. Store at 4° C. • Thallium sulfate (T12SO4) Concentrate (Component G)—50 mM in water. Store at 4° C. • DMSO (dimethyl sulfoxide, Component H)—1 mL (100%) Reagent Preparation: FluxOR Working Solutions • 1000× FluxOR™ Reagent: Reconstitute a vial of component A in 100 μl DMSO; Mix well; Store 10 μl aliquots at −20° C. • 1× FluxOR™ Assay Buffer: Dilute Component B 10-fold with water; Adjust pH to 7.4 with Hepes/NaOH; Filter and store at 4° C. • Probenecid/Assay Buffer: 100 mL of 1× FluxOR™ Assay Buffer; 1 mL of reconstituted component D; Store at 4° C. • Loading Buffer (per microplate): 10 μl 1000× FluxOR™ Reagent; 100 μl component C; 10 mL Probenecid/Assay Buffer • Compound Buffer (per microplate): 20 mL Probenecid/Assay Buffer; 0.3 mM ouabain (10 mM ouabain in water can be stored in amber bottle/aluminum foil at room temperature); Test compound • 1× FluxOR™ Chloride-Free Buffer: Prepare 1× working solution in water. Can be stored at room temperature • Stimulant Buffer (prepared at 5× final concentration in 1× FluxOR™ Chloride-Free Buffer): 7.5 mM Thallium sulfate and 0.75 mM Potassium sulfate (to give a final assay concentration of 3 mM Thallium/0.3 mM Potassium). Store at 4° C. when not in use.
Assay protocol—The ROMK channel functional thallium flux assay is performed in 384 wells, using the FLIPR-Tetra instrument. HEK-hKir1.1 cells are seeded in Poly-D-Lysine microplates and kept in a 37° C.-10% CO2 incubator overnight. On the day of the experiment, the growth media is replaced with the FluxOR™ reagent loading buffer and incubated, protected from light, at ambient temperature (23-25° C.) for 90 min. The loading buffer is replaced with assay buffer±test compound followed by 30 min incubation at ambient temperature, where the Thallium/Potassium stimulant is added to the microplate.
• 1. Seed HEK-hKir1.1 cells (50 μl at 20,000 cells/well) in 384-well PDL coated Microplates • 2. Allow cells to adhere overnight in humidified 37° C./10% CO2 incubator • 3. Completely remove cell growth media from microplate and replace with 25 μl loading buffer • 4. Incubate Microplate at room temperature, protected from light, for 90 min • 5. Remove loading buffer and replace with 25 μl 1× Assay Buffer±test compound. • 6. Incubate microplate at room temperature, protected from light, for 30 min • 7. […]

SMILES | IC50 [nM]
Cc1c([C@@H](O)CN2CC3C(C2)C3C(=O)Nc2ccc(-n3cnnn3)cn2)ccc2c1COC2=O (stereo partly drawn) [Example 60, N-(5-(1H-tetrazol-1-yl)pyridin-2-yl)-3-((R)-2-hydroxy-2-(4-methyl-1-oxo-1,3-dihydroisobenzofuran-5-yl)ethyl)-3-azabicyclo[3.1.0]hexane-6-carboxamide] | 470
Cc1nsc(NC(=O)C2C3CN(C[C@H](O)c4ccc5c(c4C)COC5=O)CC32)n1 (stereo partly drawn) [Example 56, 3-((R)-2-hydroxy-2-(4-methyl-1-oxo-1,3-dihydroisobenzofuran-5-yl)ethyl)-N-(3-methyl-1,2,4-thiadiazol-5-yl)-3-azabicyclo[3.1.0]hexane-6-carboxamide] | 350
O=C1OCc2cc(CCN3CCC(C(=O)Nc4ccc5[nH]nnc5c4)CC3)ccc21 [Example 19, N-(1H-benzo[d][1,2,3]triazol-5-yl)-1-(2-(1-oxo-1,3-dihydroisobenzofuran-5-yl)ethyl)piperidine-4-carboxamide] | 440
Cl.[2H]C([2H])([2H])N(C(=O)C1CCN(C[C@H](O)c2ccc3c(c2C)COC3=O)CC1)c1ccns1 [Example 42, 1-[(2R)-2-hydroxy-2-(4-methyl-1-oxo-1,3-dihydro-2-benzofuran-5-yl)ethyl]-N-(isothiazol-5-yl)-N-trideuteromethylpiperidine-4-carboxamide] | 20
Cc1c([C@@H](O)CN2CC3C(C2)C3C(=O)N(C)c2ccns2)ccc2c1COC2=O (stereo partly drawn) [Example 61, 3-((R)-2-hydroxy-2-(4-methyl-1-oxo-1,3-dihydroisobenzofuran-5-yl)ethyl)-N-(isothiazol-5-yl)-N-methyl-3-azabicyclo[3.1.0]hexane-6-carboxamide] | 140
Cc1c([C@@H](O)CN2CC3C(C2)C3C(=O)Nc2ccc(C#N)cn2)ccc2c1COC2=O (stereo partly drawn) [Example 59, N-(5-cyanopyridin-2-yl)-3-((R)-2-hydroxy-2-(4-methyl-1-oxo-1,3-dihydroisobenzofuran-5-yl)ethyl)-3-azabicyclo[3.1.0]hexane-6-carboxamide] | 400
O=C1OCc2cc(CCN3CCC(C(=O)Nc4ccc5cn[nH]c5c4)CC3)ccc21 [Example 18, N-(1H-indazol-6-yl)-1-(2-(1-oxo-1,3-dihydroisobenzofuran-5-yl)ethyl)piperidine-4-carboxamide] | 510
Cc1c([C@@H](O)CN2CCC(F)(C(=O)Nc3ccc(C#N)cn3)CC2)ccc2c1COC2=O [Example 52, (R)-N-(5-cyanopyridin-2-yl)-4-fluoro-1-(2-hydroxy-2-(4-methyl-1-oxo-1,3-dihydroisobenzofuran-5-yl)ethyl)piperidine-4-carboxamide] | 260
Cc1cc(NC(=O)C2(O)CCN(C[C@H](O)c3ccc4c(c3C)COC4=O)CC2)sn1 [Example 39, (R)-4-hydroxy-1-(2-hydroxy-2-(4-methyl-1-oxo-1,3-dihydroisobenzofuran-5-yl)ethyl)-N-(3-methylisothiazol-5-yl)piperidine-4-carboxamide] | 220
CCOc1cc(NC(=O)C2CCN(C[C@H](O)c3ccc4c(c3C)COC4=O)CC2)ccc1C#N [Example 25, (R)-N-(4-cyano-3-ethoxyphenyl)-1-(2-hydroxy-2-(4-methyl-1-oxo-1,3-dihydroisobenzofuran-5-yl)ethyl)piperidine-4-carboxamide] | 180
Cc1c([C@@H](O)CN2CCC(C(=O)N(C)c3ccns3)CC2)ccc2c1COC2=O [Example 41, 1-[(2R)-2-hydroxy-2-(4-methyl-1-oxo-1,3-dihydro-2-benzofuran-5-yl)ethyl]-N-(isothiazol-5-yl)-N-methylpiperidine-4-carboxamide] | 10
Cc1c([C@@H](O)CN2CCC(C(=O)Nc3cccc(-n4cnnn4)c3)CC2)ccc2c1COC2=O [Example 24, (R)-N-(3-(1H-tetrazol-1-yl)phenyl)-1-(2-hydroxy-2-(4-methyl-1-oxo-1,3-dihydroisobenzofuran-5-yl)ethyl)piperidine-4-carboxamide] | 90
COc1nsc(N(C)C(=O)C2CCN(C[C@H](O)c3ccc4c(c3C)COC4=O)CC2)n1 [Example 45, (R)-1-(2-hydroxy-2-(4-methyl-1-oxo-1,3-dihydroisobenzofuran-5-yl)ethyl)-N-(3-methoxy-1,2,4-thiadiazol-5-yl)-N-methylpiperidine-4-carboxamide] | 250
O=C1OCc2cc(CCN3CCC(C(=O)Nc4ccc5sncc5c4)CC3)ccc21 [Example 20, N-(benzo[d]isothiazol-5-yl)-1-(2-(1-oxo-1,3-dihydroisobenzofuran-5-yl)ethyl)piperidine-4-carboxamide] | 470
Cc1c(CCN2CCC(C(=O)Nc3ccc(C#N)c(F)c3)CC2)ccc2c1COC2=O [Example 5, N-(4-cyano-3-fluorophenyl)-1-(2-(4-methyl-1-oxo-1,3-dihydroisobenzofuran-5-yl)ethyl)piperidine-4-carboxamide] | 30
Cc1nsc(NC(=O)C2(O)CCN(C[C@H](O)c3ccc4c(c3C)COC4=O)CC2)n1 [Example 40, (R)-4-hydroxy-1-(2-hydroxy-2-(4-methyl-1-oxo-1,3-dihydroisobenzofuran-5-yl)ethyl)-N-(3-methyl-1,2,4-thiadiazol-5-yl)piperidine-4-carboxamide] | 420
Cc1c(CCN2CCC(C(=O)Nc3ccc4nonc4c3)CC2)ccc2c1COC2=O [Example 11, N-(benzo[c][1,2,5]oxadiazol-5-yl)-1-(2-(4-methyl-1-oxo-1,3-dihydroisobenzofuran-5-yl)ethyl)piperidine-4-carboxamide] | 210
Cc1c([C@@H](O)CN2CCC(F)(C(=O)Nc3ccns3)CC2)ccc2c1COC2=O [Example 47, 4-fluoro-1-[(2R)-2-hydroxy-2-(4-methyl-1-oxo-1,3-dihydro-2-benzofuran-5-yl)ethyl]-N-(isothiazol-5-yl)piperidine-4-carboxamide] | 60
Cc1cc(NC(=O)C2C3CN(C[C@H](O)c4ccc5c(c4C)COC5=O)CC32)sn1 (stereo partly drawn) [Example 55, 3-((R)-2-hydroxy-2-(4-methyl-1-oxo-1,3-dihydroisobenzofuran-5-yl)ethyl)-N-(3-methylisothiazol-5-yl)-3-azabicyclo[3.1.0]hexane-6-carboxamide] | 60
